The conditions of data set [1]: weak base; cited from earlier work.
A short description of data set [2]: Stability of concentrated ampul product after dilution with intravenous infusion fluids. It counts as physicochemical. The following applies: diluted to 0.1 mg/ml in IV bag, 24 hours, final pH above 4.5. On the procedure:
Stability results for the concentrated ampul product diluted to 0.1 mg/ml with various commonly used intravenous infusion fluids in an IV bag are shown in FIG. 1. pH after mixing was measured and is reported on the X-axis. Product stability was measured by monitoring the % drug remaining after duration of 24 hours by RP-HPLC and is shown on the Y-axis.

A short description of data set [3]: Effect of plastic film composition (IV bag type) on stability at 40° C. The format is physicochemical. The following applies: bags containing PVC (VIAFLEX, INTRAVIA), 0.2 mg/mL non-sorbitol dextrose formulation. On the procedure:
The effect of plastic film composition on the stability of ready to use premixed compositions comprising 0.2 mg/mL nicardipine HCl, 0.2 mM citrate, 5% dextrose, pH 4.0-4.2 for “incompatible” bags and “compatible” bags is shown in FIGS. 5A and 5B respectively. “Incompatible” bags contain polar polymers, such as polyvinyl chloride (PVC) and ethylene vinyl acetate (EVA). […] Stability evaluations were done for the 0.2 mg/mL non-sorbitol dextrose formulation in various commercially available IV infusion bag systems. […]®, and VISIV® bags were rinsed in water and covered with aluminum foil over pouches. The bags were filled with the above formulation and autoclaved at 105° C. for 21 minutes. […]®71 and GALAXY® bags were aseptically filled with the above formulation. Stability assessments were done by measuring the % drug remaining and total impurity formation (data not shown) as a function of time using RP-HPLC for samples incubated for up to 24 weeks at 40° C. The % drug remaining was calculated relative to the concentration measured post-mixing in tank.

The conditions of data set [4]: cited from earlier work.

Consider two molecules from patent publication US9364564B2, “Pre-mixed, ready-to-use pharmaceutical compositions” (EKR Therapeutics, Inc., priority 2006, dated 2016).

Structures can show the parent of a compound that is named as a salt.

What is called pKa is the pH at which an ionisable group is half protonated. With `COC(=O)C1=C(C)NC(C)=C(C(=O)OCCN(C)Cc2ccccc2)C1c1cccc([N+](=O)[O-])c1` (racemic) [nicardipine HCl, (±)-2-(benzyl-methylamino) ethyl methyl 1,4-dihydro-2,6-dimethyl-4-(m-nitrophenyl)-3,5-pyridinedicarboxylate monohydrochloride], the pKa in data set [1] was about 7.2. The “drug loss post dilution” value in data set [2] is on record as “very pronounced drug loss”. Also, the “loss in product potency upon storage” value in data set [3] is recorded as “Significant loss in product potency”.

As to `COC(=O)C1=C(C)NC(C)=C(C(=O)OCCN(C)Cc2ccccc2)C1c1cccc([N+](=O)[O-])c1` (stereo not shown) [Nicardipine, nicardipine], in data set [4], the solubility in water entry is given as “only slightly soluble”.
